Source: patent US8362031B2, “Lonidamine analogues and treatment of polycystic kidney disease” (University of Kansas, priority 2004, dated 2013)
Where “and” joins values, the source holds several entries; their conditions need not be identical. Identical values can stand only once. Entries after “also recorded” stand apart in the source; their conditions may differ. Like-named read-outs stand apart in the source and are kept apart here.

Columns and labels:
rats = test: Toxicology: organs sectioned and examined after dosing; assay type: in vivo; conditions: 25 mg/kg, two animals examined, findings per animal
Method: In at least two of the animals in each group, the pancreas, right kidney and part of the liver, heart, spleen, and lung were removed and evaluated for toxic effects.
The toxicology of animals receiving some of the compounds of the present invention IP and/or oral was examined. At the time of sacrifice samples of liver, pancreas, heart, lung, spleen and kidney were removed, visually inspected, and immersion fixed in Bouin's solution for a minimum of 48 hours. All organs were then sectioned and examined for evidence of necrosis, inflammation, hemorrhage, and possible tumors. The major veins in each tissue were also examined for distention, especially in the liver and pancreas, and any other abnormalities are compared to known histopathological states. In addition to the above, the heart was examined for evidence of fibrosis in the muscular walls, and to compare the thickness of the ventricular walls. The pancreas was examined mainly for calcium deposits, while the lung was checked for signs of any exudates or hemorrhage, especially in the alveolar spaces. Finally, the kidney was examined mainly for microscopic hemorrhages, tubular necrosis or alterations in the glomeruli in the cortex.
In this example, the effects of RC-MC-30 were compared with those of lonidamine in sexually mature rats. As discussed above, each of the rats (8 total) received a single injection and were sacrificed five days after injection and examined.

[1] = test system: M-1 Clone 20; human primary cyst epithelial cells (ADPKD cells); test: MTT cell proliferation assay with cAMP (FIGS. 9A-9B); assay type: cell-based; conditions: 48 hours
Method: Various compounds were tested for their effects on cell proliferation. In the study, the cell types were M-1 Clone 20, which is an immortalized cell line that mimics PKD, and human primary cyst epithelial cells, or ADPKD cells. The compounds were tested at 1 μM to 100 μM concentrations.
M-1 clone 20 (“M1 Clone 20”) cells are a model of PKD-like cells, which were created by stably transfecting parental “normal” M-1 immortalized renal cortical collecting duct cells with the C-terminal cytosolic domain (or C-tail) of mouse polycystin-1 (the protein product of the Pkd1 gene. The overexpressed C-tail acts in a dominant-negative fashion, conferring the PKD phenotype to these cells. Their characterization is described in: Sutters, M., Yamaguchi, T., Maser, R. L., Magenheimer, B. S., St. John, P. L., Abrahamson, D. R., Grantham, J. J. and Calvet, J. P. (2001) Polycystin-1 transforms the cAMP growth-responsive phenotype of M-1 cells. Kidney Int. 60, 484-494.
FIGS. 9A-9B include graphs that show cells grown in the vehicle (i.e. DMSO at two different volumes of 1 uL and 5 uL respectively), cAMP only, and then under the treatment drugs, all of which also had cAMP in them. The comparison drug used was 10 uM of gamendazole. […] Absorbance is a measure of cell number.
The comparison drug used was 10 uM Gamendazole. The MTT cell proliferation assay was carried out to assess cell number—cell proliferation is essentially cell number. […] Thus, absorbance is a measure of cell number, or cell proliferation. The reference bar is the third bar from the left (cAMP)—the degree of inhibition should be compared to that bar.

Male Long Evans rats [2] = test: In vivo antispermatogenic testing in Long Evans rats; conditions: for Mortality (25 mg/kg) / Response 25 mg/kg: 25 mg/kg single i.p. injection; for Response 200 mg/kg / Mortality (200 mg/kg): 200 mg/kg single i.p. injection; for Response 200 mg/kg / Response 25 mg/kg: animals responding out of animals surviving, five days following injection
[3] = test system: Salmonella Typhimurium TA 100; test: Ames test for mutagenicity (plate assay, colony count); conditions: 48 hours at 37° C.; for Ames test (+)S9 0.1 mg/pl. / Ames test (+)S9 1 mg/pl. / Ames test (+)S9 10 mg/pl.: (+)S9 mix; for Ames test (−)S9 0.1 mg/pl. / Ames test (−)S9 1 mg/pl. / Ames test (−)S9 10 mg/pl.: (−)S9 mix
fruitfly = test: Reproduction of fruitfly; assay type: in vivo, Drosophila (fruitfly); conditions: provided to a fruitfly
Source text: Several known Hsp90 inhibitors are listed above. With regard to HSP90, RC-MC-110 likely a novel inhibitor of the N-terminal ATP binding site or a novel site on Hsp90. It should be noted that mutants of Hsp90 in Drosophila (fruitfly) produce sterile males and females. […] Genetics. 1999 March; 151(3):1065-79.

Male Long Evans rats [4] = conditions: rat, in vivo, 5 days

| Structure (SMILES) | Toxicology: liver, lung, pancreas, spleen, heart and kidney (histology) (rats) | Inhibition of cell proliferation (MTT absorbance) ([1]; 10 uM) | Inhibition of cell proliferation (MTT absorbance) ([1]; 25 uM) | Mortality (25 mg/kg) (Male Long Evans rats [2]) | Response 200 mg/kg (Male Long Evans rats [2]) | Ames test (+)S9 0.1 mg/pl. [3] | Ames test (+)S9 1 mg/pl. [3] | Ames test (+)S9 10 mg/pl. [3] | Ames test (−)S9 0.1 mg/pl. [3] | Ames test (−)S9 1 mg/pl. [3] | Ames test (−)S9 10 mg/pl. [3] | Reproduction of fruitfly (fruitfly) | Mortality (25 mg/kg) (Male Long Evans rats [4]) | Mortality (200 mg/kg) (Male Long Evans rats [4]) | Response 25 mg/kg (Male Long Evans rats [2]) | Mortality (200 mg/kg) (Male Long Evans rats [2]) |
| --- | --- | --- | --- | --- | --- | --- | --- | --- | --- | --- | --- | --- | --- | --- | --- | --- |
| O=C(O)/C=C/c1nn(Cc2ccc(Cl)cc2Cl)c2cc(Cl)ccc12 [JWS-1-190, 3-[1-(2,4-dichlorobenzyl)-6-chloro-1H-indazol-3-yl]-acrylic acid] | The lung did have multiple, scattered hemorrhagic patches in the alveolar clusters; also recorded: liver, lung, pancreas, spleen, heart and kidney all appeared within normal limits | very effective | quite effective in inhibiting cell proliferation | 0/5 | 0/0 and 2/5 | Pass | Pass | Pass | Pass | Pass | Pass |  |  |  |  |  |
| NNC(=O)c1nn(Cc2ccc(F)cc2F)c2cc(Cl)ccc12 [JWS-1-282, 1-(2,4-difluorobenzyl)-6-chloro-1H-indazole-3-carboxylic acid hydrazide] |  |  | quite effective in inhibiting cell proliferation |  |  | Pass | Pass | Fail | Pass | Pass | Pass |  |  |  |  |  |
| NNC(=O)c1nn(Cc2ccc(F)cc2Cl)c2cc(Cl)ccc12 [JWS-2-22, 1-(2-chloro, 4-fluorobenzyl)-6-chloro-1H-indazole-3-carboxylic acid hydrazide] |  |  | quite effective in inhibiting cell proliferation |  |  | Pass | Pass | Pass | Pass | Pass | Pass |  |  |  |  |  |
| O=C(O)c1nn(Cc2ccc(Cl)cc2Cl)c2ccccc12 [Lonidamine, 1-(2,4,-dichlorobenzyl)-1H-indazole-3-carboxylic acid] | liver, lung, pancreas, spleen, heart and kidney all appeared normal |  |  |  | 5/5 |  |  |  |  |  |  | inhibited reproduction | 0/5 | 0/5 | 2/5 |  |
| Cc1ccc2c(C(=O)O)nn(Cc3ccc(Cl)cc3Cl)c2c1 [TH-2-178, 1-(2,4-dichlorobenzyl)-6-methyl-1H-indazole-3-carboxylic acid] |  |  | more effective in inhibition of cell proliferation at 25 uM compared to 10 uM | 0/5 | 4/5 | Pass | Pass | Pass | Pass | Pass | Pass |  |  |  | 0/5 | 0/5 |
| Cc1ccc2c(C(=O)NN)nn(Cc3ccc(Cl)cc3Cl)c2c1 [TH-2-179, 1-(2,4-dichlorobenzyl)-6-methyl-1H-indazole-3-carboxylic acid hydrazide] |  | more effective at 10 uM | more effective in inhibition of cell proliferation at 25 uM compared to 10 uM | 0/5 | 5/5 | Pass | Pass | Pass | Pass | Pass | Pass |  |  |  | 2/5 | 0/5 |
| Cc1ccc2c(/C=C/C(=O)O)nn(Cc3ccc(Cl)cc3Cl)c2c1 [TH-2-192, 3-[1-(2,4-dichlorobenzyl)-6-methyl-1H-indazol-3-yl]acrylic acid] |  |  | more effective in inhibition of cell proliferation at 25 uM compared to 10 uM | 0/5 | 0/4 | Pass | Pass | Pass | Pass | Pass | Pass |  |  |  | 0/5 | 4/5 |
